Results as given in patent US4621145A, “Process for preparing 5-vinyl-2-pyrrolidinone and intermediates therefor” (Merrell Dow Pharmaceuticals Inc., priority 1982, dated 1986).

What was measured:
[1] = test system: γ-aminobutyric acid transaminase (GABA-T); conditions: background, U.S. Pat. No. 3,960,927 and literature; cited from earlier work
[2] = test system: level of γ-aminobutyric acid (GABA) in the CNS; conditions: background; cited from earlier work
GABA-T enzyme = test: Biological activity of 4-amino-5-hexenoic acid enantiomers; conditions: GABA-T inhibition
GABA-T [3] = test: GABA-T activity in mice brain, test method of Jung et al., J. Neurochemistry; assay type: in vivo; conditions: 4 hours after injection
Source text: (§1) The biochemical and pharmacological effects of 4-aminohex-5-ynoic acid are described in Jung et al., Biochem. and Biophys. Res. Comm., 67, 301 (1975); Jung et al., J. Neurochemistry, 28, 717 (1977); Jung et al., Biochemistry, 17, 2628 (1978); Bouclier et al., Eur. J. Biochem., 98, 363 (1979); Biochem. Pharmacology, 28, 1705 (1979); and Lippert et al., Brain Research Bull., 5, 375 (1980). […] For example, (R)-4-aminohex-5-ynoic acid gave the follow effects on GABA-T activity and GABA concentrations in mice brain using the test method of Jung et al., J. Neurochemistry, supra:
(§2) ^(a) 4 hours after injection of the test compound, i.p.

[4] = test system: GABA concentrations in mice brain; test: GABA concentrations in mice brain, test method of Jung et al., J. Neurochemistry; assay type: in vivo; conditions: 4 hours after injection
Source text: as §1, §2

GABA-T [5] = test: Chronic oral experiment in rats: GABA-T activity in homogenates of brain minus the cortex; assay type: in vivo; conditions: oral daily 100 mg/kg, 24 hours after last dose
Protocol: (§3) In a chronic experiment, a group of five rats was given oral daily doses of 100 mg/kg of (R)-4-aminohex-5-ynoic acid. A separate group of animals was used as control. Twenty-four hours after the last dose, the animals were sacrificed and the cortex was dissected from the rest of the brain.

[6] = test system: GABA concentration in homogenates of the cortex; test: Chronic oral experiment in rats: GABA concentration in homogenates of the cortex; assay type: in vivo; conditions: oral daily 100 mg/kg, 24 hours after last dose, vs controls
Protocol: as §3

[7] = parameters: species or system rats; conditions: rat, in vivo, po, 100 mg/kg
[8] = test system: convulsions and death, induced by mercaptopropionic acid; test: Protection of mice against effects induced by mercaptopropionic acid; assay type: in vivo; conditions: mercaptopropionic acid 53 mg/kg i.p. 6 hours after
[9] = parameters: species or system mice; conditions: mouse, in vivo, ip, 400 mg/kg
GABA-T [10] = test: Irreversible inhibition of GABA-T in vitro; assay type: biochemical
GABA-T [11] = test: Irreversible inhibition of GABA-T in vivo
GABA-T [12] = conditions: reported by Lippert et al. and Bouclier et al.; cited from earlier work

For C=CC(N)CCC(=O)O (stereo not drawn) [4-Amino-5-hexenoic acid], the “irreversible inhibition of GABA-T” value [1] is given as “irreversible inhibitor” and the “increase of GABA level in the CNS” value [2] is given as “capable of increasing the level of γ-aminobutyric acid (GABA) in the CNS”.

With C=C[C@H](N)CCC(=O)O [(R)-4-amino-5-hexenoic acid] the “biological activity of the enantiomer” value (GABA-T enzyme) was “biologically inactive”.

For C#C[C@H](N)CCC(=O)O [(R)-4-aminohex-5-ynoic acid, (R)-4-Aminohex-5-ynoic acid], the “% Inhibition of GABA-T” value (GABA-T [3]; 25 mg/kg i.p.) was 31%, the “% Inhibition of GABA-T” value (GABA-T [3]; 50 mg/kg i.p.) was 50% and the “% Inhibition of GABA-T” value (GABA-T [3]; 100 mg/kg i.p.) was 66%. For the same compound, the “% Inhibition of GABA-T” value (GABA-T [3]; 200 mg/kg i.p.) was 81%, the “GABA Concentration % Control” value ([4]; 25 mg/kg i.p.) was 103 % Control and the “GABA Concentration % Control” value ([4]; 50 mg/kg i.p.) was 125 % Control. For the same compound, the “GABA Concentration % Control” value ([4]; 100 mg/kg i.p.) was 180 % Control, the “GABA Concentration % Control” value ([4]; 200 mg/kg i.p.) was 275 % Control and the “GABA-T activity decrease as compared to controls” value (GABA-T [5]) was 81%. For the same compound, the “GABA concentration in homogenates of the cortex” value [6] was “approximately doubled”, the body weight effect [7] was “lost body weight” and the “course of body weight and hair loss effects” value [7] was “appeared to disappear during the second week”. The hair loss [7] was “lost hair on their backs”, the “protection against convulsions and death induced by mercaptopropionic acid” value ([8]; 100 mg/kg i.p.) was “protect mice against convulsions and death” and the “protection against running fits” value ([8]; 100 mg/kg i.p.) was “no protection against running fits”. The “protection against convulsions and death induced by mercaptopropionic acid” value ([8]; 200 mg/kg i.p.) was “protect mice against convulsions and death”, the “protection against running fits” value ([8]; 200 mg/kg i.p.) was “no protection against running fits” and the death [9] was “dead”. The sedation [9] was “produced sedation”, the time to sedation [9] was ≤ 30 min and the “irreversible inhibition of GABA-T” value (GABA-T [10]) was “irreversible inhibitor of GABA-T”. The “irreversible inhibition of GABA-T” value (GABA-T [11]) was “irreversible inhibitor of GABA-T”.

With C=C[C@@H](N)CCC(=O)O [(S)-4-amino-5-hexenoic acid, (S)-4-Amino-5-hexenoic acid] the “biological activity of the enantiomer” value (GABA-T enzyme) was “biologically active”.

In the case of C#C[C@@H](N)CCC(=O)O [(S)-4-aminohex-5-ynoic acid], the “irreversible inhibition of GABA-T (reported as only active enantiomer)” value (GABA-T [12]) is given as “irreversibly inhibit GABA-T”.
